The record followed here is ChEMBL document CHEMBL1147593, “Design and synthesis of benzoxazole derivatives as novel melatoninergic ligands” (Bioorg Med Chem Lett, 2004).

As a reminder, the Ki is a dissociation constant, usually derived from enzyme kinetics or from competition with a known ligand. Low readings indicate a stronger hold on the target, high ones a looser hold on the target.

In assay [1] the target is Melatonin receptor type 1A (Homo sapiens, UniProt P48039). Description: Binding of 2-[125I]iodomelatonin to membrane preparations of NIH3T3 cells stably expressing human Melatonin receptor type 1A. The assay is classed as cell membranes.
The target in assay [2] is T1, Melatonin receptor type 1B (Homo sapiens, UniProt P49286).
T1 sequence (P49286 whole entry): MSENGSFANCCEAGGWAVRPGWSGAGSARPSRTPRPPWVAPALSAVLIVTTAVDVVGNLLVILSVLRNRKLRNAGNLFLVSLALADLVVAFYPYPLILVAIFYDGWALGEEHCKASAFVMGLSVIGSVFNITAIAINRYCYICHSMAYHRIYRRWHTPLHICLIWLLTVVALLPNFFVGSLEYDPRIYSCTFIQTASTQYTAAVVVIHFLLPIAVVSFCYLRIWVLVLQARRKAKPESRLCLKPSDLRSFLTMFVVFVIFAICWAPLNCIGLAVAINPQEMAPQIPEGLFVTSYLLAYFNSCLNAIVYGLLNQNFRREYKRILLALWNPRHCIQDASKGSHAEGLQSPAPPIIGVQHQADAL
Description: Binding of 2-[125I]iodomelatonin to membrane preparations of NIH3T3 cells stably expressing human Melatonin receptor type 1B. The assay is classed as cell membranes.

Melatonin receptor type 1A, sequence (P48039 whole entry): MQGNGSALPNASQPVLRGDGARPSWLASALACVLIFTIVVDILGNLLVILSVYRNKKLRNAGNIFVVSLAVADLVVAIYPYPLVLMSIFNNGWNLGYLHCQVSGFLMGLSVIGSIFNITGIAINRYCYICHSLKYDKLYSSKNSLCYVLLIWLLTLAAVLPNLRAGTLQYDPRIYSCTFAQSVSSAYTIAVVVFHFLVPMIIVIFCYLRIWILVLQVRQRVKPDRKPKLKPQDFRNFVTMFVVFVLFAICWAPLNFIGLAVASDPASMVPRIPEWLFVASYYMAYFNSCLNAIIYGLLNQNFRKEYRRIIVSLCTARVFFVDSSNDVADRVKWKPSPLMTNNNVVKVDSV

As for `CCCC(=O)NC[C@@H]1C[C@H]1c1cccc2nc(CCC)oc12`, the results for the inhibition constant (Ki) in assay [1] and in assay [2] were 0.94 nM and 0.04 nM, respectively.
As for `CCCc1nc2cccc([C@@H]3C[C@H]3CNC(=O)NCC)c2o1`, the Ki in assay [1] was found to be 3.5 nM; in assay [2], 1 nM.
For `CCC(=O)NC[C@@H]1C[C@H]1c1cccc2nc(C(C)C)oc12`, in that order: 4.9 nM and 0.32 nM.
As to `CCc1nc2cccc([C@@H]3C[C@H]3CNC(=O)C(C)C)c2o1`, the figures for the Ki in assay [1] and in assay [2] were 0.2 nM and 0.75 nM, respectively.
As to `CCCc1nc2cccc([C@@H]3C[C@H]3CNC(=O)C(C)C)c2o1`, the inhibition constant Ki in assay [1] is 4.9 nM; in assay [2] it was 0.28 nM.
Regarding `CCCC(=O)NC[C@@H]1C[C@H]1c1cccc2nc(CC)oc12`, the inhibitory constant (Ki) in assay [1] stood at 0.05 nM; in assay [2] it was 0.33 nM.
Turning to `CCCC(=O)NC[C@@H]1C[C@H]1c1cccc2nc(CCCCc3ccccc3)oc12`, the results for the Ki in assay [1] and in assay [2] were 0.05 nM and 0.24 nM, respectively.
For the compound `CCC(=O)NC[C@@H]1C[C@H]1c1cccc2nc(CC)oc12`, the Ki in assay [1] came out at 0.05 nM; in assay [2], 0.44 nM.
Regarding `CCc1nc2cccc([C@@H]3C[C@H]3CNC(C)=O)c2o1`, the inhibition constant (Ki) is 0.35 nM in assay [1] and 0.88 nM in assay [2].
Turning to `CCNC(=O)NC[C@@H]1C[C@H]1c1cccc2nc(C(C)C)oc12`, the inhibitory constant (Ki) in assay [1] was 11.8 nM; in assay [2] it was 12.6 nM.
In the case of `CCc1nc2cccc([C@@H]3C[C@H]3CNC(=O)C3CC3)c2o1`, the Ki is 0.05 nM in assay [1] and 0.19 nM in assay [2].
Regarding `CC(=O)NC[C@@H]1C[C@H]1c1cccc2nc(CCCCc3ccccc3)oc12`, the inhibition constant Ki is 0.05 nM in assay [1] and 0.37 nM in assay [2].
On the same counts, the results for `O=C(NC[C@@H]1C[C@H]1c1cccc2nc(CCCCc3ccccc3)oc12)C1CC1` are 0.05 nM and 0.48 nM.
With `CC(C)C(=O)NC[C@@H]1C[C@H]1c1cccc2nc(C(C)C)oc12`, the Ki came out at 1.3 nM in assay [1] and 2.5 nM in assay [2].
Consider `CCC(=O)NC[C@@H]1C[C@H]1c1cccc2nc(CCCCc3ccccc3)oc12`, for which the results for the Ki in assay [1] and in assay [2] were 0.05 nM and 0.07 nM, respectively.
For the compound `CCCc1nc2cccc([C@@H]3C[C@H]3CNC(=O)C3CC3)c2o1`, the results for the Ki in assay [1] and in assay [2] were 0.18 nM and 0.14 nM, respectively.
